The values below come from patent US11203610B2, “2′3′ cyclic dinucleotides with phosphonate bond activating the sting adaptor protein” (INSTITUTE OF ORGANIC CHEMISTRY AND BIOCHEMISTRY ASCR, V.V.I., priority 2017, dated 2021).

The target in one experiment is T1, AQ STING (G230A-R293Q) (Homo sapiens, UniProt Q86WV6, G230A/H232R/R293Q).
T1 construct: truncated human WT STING or AQ STING (amino acid residues 140-343); 8xHis (N, cleaved yes); SUMO (N, cleaved yes); made in house; host or cells: E. coli Rosetta-gami B (DE3)
T1 sequence (Q86WV6 140-343 G230A/H232R/R293Q): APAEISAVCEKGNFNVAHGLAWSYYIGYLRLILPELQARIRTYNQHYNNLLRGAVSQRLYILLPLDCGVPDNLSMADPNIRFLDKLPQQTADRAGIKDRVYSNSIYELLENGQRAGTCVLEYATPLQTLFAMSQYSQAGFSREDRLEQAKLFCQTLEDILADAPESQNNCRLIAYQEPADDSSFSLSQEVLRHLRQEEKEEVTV
Kind of experiment: Differential Scanning Fluorimetry with AQ STING. To be noted: thermal shift vs STING apoprotein, 150 μM CDN, 0.1 mg/ml truncated human AQ STING, SYPRO Orange; for ΔTm at 150 µM: read-out: DSF ΔTm (° C.) AQ STING. Format: binding. The procedure:
(§1) WT STING and AQ STING Proteins
(§2) Purified PCR products were cleaved with restriction enzymes BamHI (cat. #R0136S, NEB, Ipswich, USA) and NotI (cat. #R0189S, NEB, Ipswich, USA) and cloned into the pSUMO vector linearized with the identical enzymes.
(§3) The resin was poured into a chromatography column, washed with 50 ml buffer A (50 mmol·l^−1 TrisCl (pH 8.0), 800 mmol·l^−1 NaCl, 3 mmol·l^−1 β-mercaptol; 10% glycerol; 20 mmol·l^−1 imidazole) and 8-His-SUMO tagged STING proteins were eluted with 15 ml buffer A containing 300 mmol·l^−1 imidazole. […] Proteins were concentrated with Amicon® Ultra-15 10 K device (cat. #UFC901008, Merck Millipore, Billerica, USA) and flash frozen in liquid N2.
(§4) Differential Scanning Fluorimetry with WT STING and AQ STING
(§5) 20 μL solutions of the reaction mixtures were pipetted in triplicates into 96 well optical reaction plates and thermal denaturation of samples were performed on real time PCR cycler (LightCycler® 480 Instrument II—Roche, Basel, Switzerland). The first derivative of the thermal denaturation curves was performed to calculate denaturing temperatures of STING—CDN complexes and STING apoproteins. The thermal shift for each CDN was calculated by subtracting the average denaturing temperature of STING apoprotein from the average denaturing temperature of STING CDN complex.
On the technique in general: DSF heats the sample and reads unfolding from a dye or from intrinsic fluorescence.

Experiment [1] deals with T2, WT STING (Homo sapiens, UniProt Q86WV6, H232R). Kind of experiment: Differential Scanning Fluorimetry with WT STING. The format is binding. On the set-up: truncated human WT STING or AQ STING (amino acid residues 140-343); 8xHis (N, cleaved yes); SUMO (N, cleaved yes); made in house; host or cells: E. coli Rosetta-gami B (DE3). To be noted: thermal shift vs STING apoprotein, 150 μM CDN, 0.1 mg/ml truncated human WT STING, SYPRO Orange; for ΔTm at 150 µM: read-out: DSF ΔTm (° C.) WT STING. How it is done: as §1, §2, §3, §4, §5
Target sequence in this assay (Q86WV6 140-343 H232R): as the sequence (Q86WV6 140-343 G230A/H232R/R293Q) above, with A91G, Q154R counted along it

Experiment [2] deals with T2, WT STING. Kind of experiment: Digitonin assay using 293T wtSTING-FL reporter cells. Format: cell-based. To be noted: 293T wtSTING-FL cells; 30 minutes in Digitonin buffer, then 5 hours; ISRE firefly luciferase reporter; 8-point dose-response curve; read-out: Digitonin assay EC50 (μmol · l^−1) WT STING. The text has this: ISRE Reporter Plasmid (pGL64.27-4xISRE)
Two complementary oligonucleotides of the sequence […] […] […] […] […] The oligonucleotides were mixed in equal molar amounts, hybridized, and cleaved by restriction endonucleases HindIII (cat. #. R0104S, NEB, Ipswich, USA) and BglII (cat. #R0144S, NEB, Ipswich, USA). Ultimately, they were ligated into plasmid pGL4.27 (cat. #E6651, Promega, Madison, USA) linearized with the same enzymes. As result the sequence with four ISRE sites was placed upstream of the minimum promoter of firefly luciferase reporter gene.
After 5 minutes incubation at room temperature (RT), 250 μL of the mixture was added dropwise to the cells in one well. Cells were incubated 36 hours at 37° C. with 5% CO2, and then detached with 0.05% Trypsin and 0.22 g/L EDTA (both cat. #L0941, Biowest, Riverside, USA).
Transfected cells were seeded onto poly-D-lysine coated six well plates at density 50,000 cells per 1 cm^2 in DMEM medium with high glucose containing 10% heat inactivated FBS, 30 g/mL blasticidin (cat. #ant-bl-05, InvivoGen, San Diego, USA), 0.06 mg/ml Penicillin G and 0.1 mg/ml Streptomycin Sulfate (both cat. #. L0018, Biowest, Riverside, USA). The medium was replenished every 3-4 days until visible colonies of cells resistant to blasticidin were formed.
Blasticidin resistant cells stably expressing WT STING were further transfected with […] plasmid following the same procedure as described above. […] Homogeneous culture of stably double transfected cells was prepared by limiting dilution of cells in 96 well plates and wells with cells were selected that originated from a single cell.
The medium was removed next day and three fold serial dilutions of compounds in Digitonin buffer containing 50 mmol·l^−1 HEPES (cat. #H3375, Sigma Aldrich, Czech Republic) pH 7.0, 100 mmol·l^−1 KCl, 3 mmol·l^−1 MgCl2, 0.1 mmol·l^−1 DTT (cat. #D0632, Sigma Aldrich, Czech Republic), 85 mmol·l^−1 Sucrose (cat. #S7903, Sigma Aldrich, Czech Republic), 0.2% BSA (cat. #A2153, Sigma Aldrich, Czech Republic), 1 mmol·l^−1 ATP (cat. #A1852, Sigma Aldrich, Czech Republic), 0.1 mmol·l^−1 GTP (cat. #G8877, Sigma Aldrich, Czech Republic), and 10 μg/mL Digitonin A (cat. #D141, Sigma Aldrich, Czech Republic) were added to the cells. The buffer was removed after 30 minutes incubation at 37° C. with 5% CO2, the cells were washed once with 100 μl of cultivation medium, and 100 μl of medium was added to each well. The plates with cells were incubated for 5 hours at 37° C. with 5% CO2, 50 μl of the medium was removed and 30 μl of ONE-Glo™ Luciferase Assay System reagent (cat. #E6120, Promega, Madison, USA) was added to each well. Luminescence was read on Synergy H1 (Biotek, Winooski, USA).
Target sequence in this assay (Q86WV6 whole entry H232R, the tested form may be a part): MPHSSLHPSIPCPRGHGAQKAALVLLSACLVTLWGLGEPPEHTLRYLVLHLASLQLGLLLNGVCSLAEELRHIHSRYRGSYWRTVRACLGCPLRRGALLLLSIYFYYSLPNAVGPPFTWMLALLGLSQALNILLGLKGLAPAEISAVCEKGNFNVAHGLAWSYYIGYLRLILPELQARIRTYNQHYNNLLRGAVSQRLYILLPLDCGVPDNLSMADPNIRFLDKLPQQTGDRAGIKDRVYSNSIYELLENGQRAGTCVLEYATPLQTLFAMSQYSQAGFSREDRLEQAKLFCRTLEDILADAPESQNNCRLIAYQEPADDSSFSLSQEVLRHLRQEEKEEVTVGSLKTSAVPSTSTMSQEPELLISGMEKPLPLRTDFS
(In a reporter assay the amount or activity of a reporter protein is the signal.)

Turning to “1R,6R,8R,9R,10R,15R,17R,18S)-8,17-bis(6-amino-9H-purin-9-yl)-9-fluoro-3,12,18-trihydroxy-2,4,7,11,14,16-hexaoxa-3λ^5,12λ^5-diphosphatricyclo[13.2.1.0^6,^10]octadecane-3,12-dione [Compound 34]”, the “DSF ΔTm (° C.) AQ STING” value on AQ STING (G230A-R293Q) was 8.5 °C. The “DSF ΔTm (° C.) WT STING” value at WT STING [1] came to 2.6 °C. Besides, at WT STING [2], the EC50 amounted to 700 nM.

With `Nc1nc2c(ncn2[C@@H]2O[C@@H]3COP(=O)(O)O[C@@H]4[C@H](O)[C@@H](COP(=O)(O)O[C@@H]2[C@@H]3O)O[C@H]4n2cnc3c(N)ncnc32)c(=O)[nH]1` [2′2′-cGAMP, reference compound], the “DSF ΔTm (° C.) AQ STING” value on AQ STING (G230A-R293Q) was determined as 19.4 °C. For the same compound, at WT STING [1], the “DSF ΔTm (° C.) WT STING” value worked out at 11.5 °C. Further, the EC50 on WT STING [2] worked out at 30 nM.

For `Nc1ncnc2c1ncn2[C@@H]1O[C@@H]2COP(=O)(O)O[C@H]3[C@@H](O)[C@H](n4cnc5c(N)ncnc54)O[C@@H]3COP(=O)(O)O[C@H]2[C@H]1O` [3′3′c-di-AMP, reference compound], at AQ STING (G230A-R293Q), the “DSF ΔTm (° C.) AQ STING” value was 9.3 °C. Further, the “DSF ΔTm (° C.) WT STING” value at WT STING [1] was 2.6 °C. Further, the EC50 on WT STING [2] came out at 300 nM.

Consider `Nc1nc2c(ncn2[C@@H]2O[C@@H]3COP(=O)(O)O[C@H]4[C@@H](O)[C@H](n5cnc6c(=O)[nH]c(N)nc65)O[C@@H]4COP(=O)(O)O[C@H]3[C@H]2O)c(=O)[nH]1` [3′3′c-di-GMP, reference compound], for which the “DSF ΔTm (° C.) AQ STING” value at AQ STING (G230A-R293Q) turned out to be 7.7 °C. In addition, the “DSF ΔTm (° C.) WT STING” value at WT STING [1] amounted to 2.6 °C. For the same compound, on WT STING [2], the EC50 came out at 5800 nM.

For `Nc1ncnc2c1ncn2[C@@H]1O[C@@H]2OCP(=O)(O)O[C@@H]3[C@H](O)[C@@H](OCP(=O)(O)O[C@H]2[C@H]1O)O[C@H]3n1cnc2c(N)ncnc21` [Compound 30, (1R,6R,8R,9R,10S,15R,17R,18S)-8,17-bis(6-amino-9H-purin-9-yl)-3,9,12,18-tetrahydroxy-2,5,7,11,14,16-hexaoxa-3λ^5,12λ^5-diphosphatricyclo[13.2.1.0^6,^10]octadecane-3,12-dione], the ΔTm at 150 µM stood at 6.4 °C on AQ STING (G230A-R293Q) and 0.8 °C on WT STING [1]. Moreover, the EC50 at WT STING [2] was 6700 nM.

As to `Nc1ncnc2c1ncn2[C@@H]1O[C@@H]2COP(=O)(O)O[C@@H]3[C@H](O)[C@@H](COCP(=O)(O)O[C@H]2[C@H]1O)O[C@H]3n1cnc2c(N)ncnc21` [Compound 31], the results for the ΔTm at 150 µM on AQ STING (G230A-R293Q) and on WT STING [1] were 5.7 °C and 0.5 °C, respectively. At WT STING [2], the 50% effective concentration (EC50) stood at 12500 nM.

For `Nc1ncnc2c1ncn2[C@@H]1O[C@@H]2COCP(=O)(O)O[C@@H]3[C@H](O)[C@@H](COP(=O)(O)O[C@H]2[C@H]1O)O[C@H]3n1cnc2c(N)ncnc21` [Compound 32, (1R,6S,7R,8R,10R,16R,17R,19R)-8,17-bis(6-amino-9H-purin-9-yl)-4,7,14,19-tetrahydroxy-3,5,9,12,15,18-hexaoxa-4λ^5,14λ^5-diphosphatricyclo[14.2.1.0^6,^10]nonadecane-4,14-dione], the ΔTm at 150 µM on AQ STING (G230A-R293Q) stood at 5.3 °C; at WT STING [1], 0.5 °C. Besides, the half-maximal effective concentration (EC50) at WT STING [2] came to 8000 nM.

On to `Nc1ncnc2c1ncn2[C@@H]1O[C@@H]2COP(=O)(O)O[C@@H]3[C@H](O)[C@@H](COCP(=O)(O)O[C@H]2[C@H]1F)O[C@H]3n1cnc2c(N)ncnc21` [Compound 33, (1R,6R,8R,9R,10R,16R,18R,19R)-8,18-bis(6-amino-9H-purin-9-yl)-9-fluoro-3,12,19-trihydroxy-2,4,7,11,14,17-hexaoxa-3λ^5,12λ^5-diphosphatricyclo[14.2.1.0^6,^10]nonadecane-3,12-dione], for which the ΔTm at 150 µM at AQ STING (G230A-R293Q) is 8.3 °C; at WT STING [1], 1.6 °C. For the same compound, the EC50 at WT STING [2] is 2600 nM.

As to `Nc1nc2c(ncn2[C@@H]2C[C@@H]3COP(=O)(O)O[C@@H]4[C@@H](OCP(=O)(O)O[C@@H]2[C@@H]3O)O[C@@H](n2cnc3c(N)ncnc32)[C@@H]4O)c(=O)[nH]1` [Compound 36, (1S,6R,8R,9R,10S,15R,17R,18R)-17-(2-amino-6-oxo-6,9-dihydro-1H-purin-9-yl)-8-(6-amino-9H-purin-9-yl)-3,9,12,18-tetrahydroxy-2,5,7,11,13-pentaoxa-3λ^5,12λ^5-diphosphatricyclo[13.2.1.0^6,10]octadecane-3,12-dione], the ΔTm at 150 µM was determined as 14.2 °C at AQ STING (G230A-R293Q) and 5.8 °C at WT STING [1]. Moreover, the EC50 on WT STING [2] stood at 180 nM.

Regarding `Nc1ncnc2c1ncn2[C@@H]1O[C@@H]2OCP(=O)(O)O[C@@H]3[C@H](O)[C@@H](COP(=O)(O)O[C@H]2[C@H]1O)O[C@H]3n1cnc2c(=O)[nH]cnc21` [Compound 37, (1R,6R,8R,9R,10S,15R,17R,18R)-8-(6-amino-9H-purin-9-yl)-3,9,12,18-tetrahydroxy-17-(6-oxo-6,9-dihydro-1H-purin-9-yl)-2,5,7,11,13,16-hexaoxa-3λ^5,12λ^5 diphosphatricyclo[13.2.1.0^6,10]octadecane-3,12-dione], the values for the ΔTm at 150 µM on AQ STING (G230A-R293Q) and at WT STING [1] were 16.5 °C and 8.5 °C, respectively. Further, on WT STING [2], the concentration for a half-maximal effect (EC50) was determined as 50 nM.

As for `Nc1nc2c(ncn2[C@@H]2O[C@@H]3COP(=O)(O)O[C@@H]4[C@@H](OCP(=O)(O)O[C@@H]2C3)O[C@@H](n2cnc3c(N)ncnc32)[C@@H]4O)c(=O)[nH]1` [Compound 38, (1R,6R,8R,9R,10S,15S,17R)-17-(2-amino-6-oxo-6,9-dihydro-1H-purin-9-yl)-8-(6-amino-9H-purin-9-yl)-3,9,12-trihydroxy-2,5,7,11,13,16-hexaoxa-3λ^5,12λ^5-diphosphatricyclo[13.2.1.0^6,10]octadecane-3,12-dione], the ΔTm at 150 µM at AQ STING (G230A-R293Q) was determined as 16.2 °C; at WT STING [1] it was 8.2 °C. For the same compound, the EC50 on WT STING [2] was 50 nM.

A word on the EC50: it is the concentration that produces a half-maximal response. The ΔTm is the shift of the melting midpoint relative to a reference.
